According to patent US4780464A, “(1,2,4)triazolo(4,3-a)quinoxaline-4-amines” (Warner-Lambert Company, priority 1986, dated 1988):

Tests used:
adenosine A2 receptor = target: T1, adenosine A2 receptor (Rattus norvegicus, UniProt P30543); test: Adenosine Receptor Binding--A2 Receptor Affinity (RBA2), [3H]NECA, rat striatal membranes; design: species or system rat (Sprague-Dawley; Long-Evans hooded); settings: 4 nM [3H]NECA, 50 nM N6-cyclopentyladenosine, 25° C., 60 min, read-out: RBA-2 (IC50, adenosine A2 receptor affinity)
T1 construct: Brains are thawed and then kept on ice while the striata are dissected out; tissue Pel-Freez (Rogers, Arkansas); host or cells: rat striatum, membranes
T1 sequence (P30543 whole entry): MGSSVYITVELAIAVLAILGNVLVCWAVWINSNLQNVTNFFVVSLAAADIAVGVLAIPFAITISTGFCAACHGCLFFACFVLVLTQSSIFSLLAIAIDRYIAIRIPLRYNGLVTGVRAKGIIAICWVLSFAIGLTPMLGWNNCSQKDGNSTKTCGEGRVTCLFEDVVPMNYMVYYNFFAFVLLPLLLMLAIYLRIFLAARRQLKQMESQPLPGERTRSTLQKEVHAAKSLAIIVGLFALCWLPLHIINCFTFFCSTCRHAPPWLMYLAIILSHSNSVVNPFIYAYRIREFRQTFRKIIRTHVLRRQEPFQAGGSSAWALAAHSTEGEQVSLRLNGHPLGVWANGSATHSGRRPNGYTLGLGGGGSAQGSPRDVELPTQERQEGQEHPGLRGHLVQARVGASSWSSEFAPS
Protocol: Brains from 200-500 g mixed sex Sprague-Dawley rats are purchased from Pel-Freez (Rogers, Arkansas). Fresh brains from male Long-Evans hooded rats (Blue Spruce Farms, Altamont, NY) give essentially identical results. Brains are thawed and then kept on ice while the striata are dissected out. Striata are disrupted in 10 vol of ice-cold 50 mM Tris.HCl (pH 7.7 at 25° C., pH 8.26 at 5° C.) (Tris) for 30 seconds in a Polytron PT-10 (Brinkman) at setting 5. The suspension is centrifuged at 50,000 xg for ten minutes, the supernatant discarded, the pellet resuspended in 10 vol ice-cold Tris as above, recentrifuged, resuspended at 1 g/5 ml, and stored in plastic vials at -70° C. (stable for at least six months). When needed, tissue is thawed at room temperature, disrupted in a Polytron, and kept on ice until used.
All incubations are for 60 minutes at 25° C. in 12×75 mm glass tubes containing 1 ml Tris with 5 mg original tissue weight of rat weight of rat striatal membranes, 4 nM [^3 H]-N-ethyl adenosine-5'-carboxamide ([^3 H]NECA), 50 nM N6-cyclopentyladenosine (to eliminate A1 receptor binding), 10 mM MgCl2, 0.1 units/ml of adenosine deaminase and 1% dimethylsulfoxide. N6-Cyclopentyladenosine is dissolved at 10 mM in 0.02 N HCl and diluted in Tris. Stock solutions and dilutions of N6-cyclopentyladenosine can be stored at -20° C. for several months. Test compounds are dissolved at 10 mM in dimethylsulfoxide on the same day as the experiment, and diluted in dimethylsulfoxide to 100× the final incubation concentration. […] [^3 H]NECA is diluted to 40 nM in Tris. The membrane suspension (5 mg/0.79 ml) contained sufficient MgCl2 and adenosine deaminase to give 10 mM and 0.1 units/ml, respectively, final concentration in the incubation. […] After all additions, the rack of tubes is vortexed, and the tubes are then incubated for 60 min at 25° C. in a shaking water bath. The rack of tubes is vortexed an additional time halfway through the incubation.
Incubations are terminated by filtration through 2.4 cm GF/B filters under reduced pressure. Each tube is filtered as follows: the contents of the tube are poured on the filter, 4 ml of ice-cold Tris are added to the tube and the contents poured onto the filter, and the filter is washed twice with 4 ml of ice-cold Tris. The filtration is complete in about twelve seconds. Filters are put in scintillation vials, 8 ml of Formula 947 scintillation fluid added, and the vials left overnight, shaken, and counted in a liquid scintillation counter at 40% efficiency.
Nonspecific binding is defined as binding in the presence of 100 μM N6-cyclopentyladenosine, and specific binding is defined as total binding minus nonspecific binding. The IC50 is calculated by weighted nonlinear least squares curve-fitting to the mass-action equation. [formula] where
Weighting factors are calculated under the assumption that the standard deviation was proportional to the predicted value of Y. Nonspecific binding is treated as a very large (infinite) concentration of drug in the computer analysis.

adenosine A1 receptor = target: T2, adenosine A1 receptor (Rattus norvegicus, UniProt P25099); test: Adenosine Receptor Binding--A1 Receptor Affinity (RBA1), [3H]-CHA, rat whole brain minus cerebellum and brainstem membranes; design: species or system rat (male Long-Evans); settings: 1.0 nM [3H]-CHA, pH 7.7, 25° C., one hour, read-out: RBA-1 (IC50, adenosine A1 receptor affinity)
T2 construct: Whole brain minus cerebellum and brainstem from male Long-Evans rats (150-200 g) is homogenized; from tissue; host or cells: rat whole brain minus cerebellum and brainstem, membranes
T2 sequence (P25099 1-326): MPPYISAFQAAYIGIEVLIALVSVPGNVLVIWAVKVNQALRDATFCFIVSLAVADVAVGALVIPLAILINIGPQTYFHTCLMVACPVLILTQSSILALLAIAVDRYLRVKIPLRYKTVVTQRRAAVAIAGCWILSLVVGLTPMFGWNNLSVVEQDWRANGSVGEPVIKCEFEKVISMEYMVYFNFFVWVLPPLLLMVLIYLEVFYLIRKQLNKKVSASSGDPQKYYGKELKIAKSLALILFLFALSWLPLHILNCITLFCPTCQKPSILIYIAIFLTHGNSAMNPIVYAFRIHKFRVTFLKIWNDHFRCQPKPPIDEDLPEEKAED
Protocol: Whole brain minus cerebellum and brainstem from male Long-Evans rats (150-200 g) is homogenized in 30 volumes of ice-cold 0.05 M Tris-HCl buffer pH 7.7 using a Brinkman Polytron PT-10, (setting number 6 for 20 seconds) and centrifuged for ten minutes at 20,000×g (Sorvall RC-2), 4° C. The supernatant is discarded, and the pellet is resuspended and centrifuged as before. The pellet is resuspended in 20 ml Tris-HCl buffer containing two International Units/ml of adenosine deaminase (Sigma type III from calf intestinal mucosa), incubated at 37° C. for 30 minutes, then subsequently at 0° C. for ten minutes. The homogenate is again centrifuged, and the final pellet is resuspended in ice-cold 0.05 M Tris-HCl buffer pH 7.7 to a concentration of 20 mg/ml original wet tissue weight and used immediately. […] Incubation volume was 2 ml. […] The filters are rinsed three times with 5 ml of ice-cold 0.05 M Tris-HCl buffer pH 7.7. The radio-labeled ligand retained on the filter is measured by liquid scintillation spectrophotometry after shaking the filters for one hour or longer on a mechanical shaker in 10 ml of Beckman Ready-Solv HP scintillation cocktail. Nonspecific binding is defined as the binding which occurs in the presence of 1 mM theophylline. […] The Scatchard plot is calculated by linear regression of the line obtained by plotting the amount of radioligand bound (pmoles/gram of tissue) versus [formula] Since the amount of radioligand bound is a small fraction of the total amount added, free radioligand is defined as the concentration of (nM) of radioligand added to the incubation mixture. The Hill coefficient is calculated by linear regression of the line obtained by plotting the log of the bound radioligand vs the log of the [formula] The maximal number of binding sites (Bmax) is calculated from the Scatchard plot.

| IC50 (adenosine A2 receptor) | IC50 (adenosine A1 receptor) | SMILES |
| --- | --- | --- |
| 8.69 µM | 0.074 µM | CCc1nnc2c(N[C@@H]3C[C@H]4CC[C@@H]3C4)nc3ccccc3n12 (relative stereo) [Example 9, Exo-N-bicyclo[2.2.1]hept-2-yl-1-ethyl[1,2,4]triazolo [4,3-a]quinoxalin-4-amine] |
| 7.77 µM | 0.331 µM | c1ccc2c(c1)nc(NC1CCCC1)c1nncn12 [Example 1, N-Cyclopentyl[1,2,4]triazolo[4,3-a]quinoxalin-4-amine] |
| 6.13 µM | 0.071 µM | Cc1nnc2c(NC3CCCC3)nc3ccccc3n12 [Example 2, N-cyclopentyl-1-methyl[1,2,4]triazolo[4,3-a]quinoxalin-4-amine] |
| 2.51 µM | 0.0497 µM | CCc1nnc2c(NC3CCCC3)nc3ccccc3n12 [Example 3, N-Cyclopentyl-1-ethyl[1,2,4]triazolo[4,3-a]quinoxalin-4-amine] |
| 5.08 µM | 0.068 µM | CCCc1nnc2c(NC3CCCC3)nc3ccccc3n12 [Example 4, N-Cyclopentyl-1-propyl[1,2,4]triazolo[4,3-a]quinoxalin-4-amine] |
| > 100 µM | 0.101 µM | CCCCc1nnc2c(NC3CCCC3)nc3ccccc3n12 [Example 5, 1-Butyl-N-cyclopentyl[1,2,4]triazolo[4,3-a]quinoxalin-4-amine] |
| 6.63 µM | 0.487 µM | CCc1nnc2c(NC3CC3)nc3ccccc3n12 [Example 6, N-Cyclopropyl-1-ethyl[1,2,4]triazolo[4,3-a]quinoxalin-4-amine] |
| 2.32 µM | 0.109 µM | CCc1nnc2c(NC3CCC3)nc3ccccc3n12 [Example 7, N-Cyclobutyl-1-ethyl[1,2,4]triazolo[4,3-a]quinoxalin-4-amine] |
| 5.88 µM | 0.146 µM | CCc1nnc2c(NC3CCCCC3)nc3ccccc3n12 [Example 8, N-Cyclohexyl-1-ethyl[1,2,4]triazolo[4,3-a]quinoxalin-4-amine] |
| 40.7 µM | 0.554 µM | CCc1nnc2c(NC[C@H](C)O)nc3ccccc3n12 [Example 10, (S)-1-[(1-ethyl[1,2,4]triazolo[4,3-a]quinoxalin-4-yl)amino]-2-propanol] |
| 20 µM | 0.982 µM | CCc1nnc2c(Nc3ccccc3)nc3ccccc3n12 [Example 11, 1-Ethyl-N-phenyl[1,2,4]triazolo[4,3-a]quinoxalin-4-amine] |
| 2.08 µM | 0.0125 µM | FC(F)(F)c1nnc2c(NC3CCCC3)nc3ccccc3n12 [Example 13, N-Cyclopentyl-1-(trifluoromethyl)[1,2,4]triazolo [4,3-a]quinoxalin-4-amine] |
